≈ marks a conversion by molar mass, not a printed value. Where two headings read alike, the source gives them in different places.
How the values were obtained:
MCF-7/ADR cells [1] = experiment: MTT cytotoxicity / chemosensitivity assay, resistant tumor cells; type: cell-based
Experimental: (§1) The cytotoxicity of didymin on various cell lines was examined by MTT assay as previously reported (Yao et al., [2019]). The didymin solution was prepared by dissolving in DMSO at different concentrations and diluted with the fresh medium right before the treatment. The didymin inclusion complex was dispersed in the sterilized water and then diluted with the fresh medium before treatment. Experiments involving healthy cells (HUVEC, H9C2, and PC12) by culturing 100 μL cell suspension (5 × 10^4 cell/mL) in 96 well plates. After 24 h incubation, the didymin or didymin inclusion complexes contained medium was used to replace the overnight medium and cultured for 48 h, respectively. After that, the MTT solution at the concentration of 5 mg/mL was added to each well. After 4 h incubation, the medium was removed, and the MTT formazan was dissolved by DMSO. Then the DMSO solution is measured using a microplate reader with the absorbance wavelength at 570 nm. The untreated cells were used as control. The cell viability (%) was calculated as follows, cell viability (%) = Asample/Acontrol ×100.
(§2) The MCF-7 and MCF-7/ADR cells cytotoxicity of the combination of didymin and doxorubicin were evaluated by MTT assay, as mentioned above.

MCF-7/ADR tumor = experiment: In vivo antitumor efficacy in mice bearing resistant tumors; parameters: species or system BALB/c nude mice; settings: DOX 5 mg/kg/3 days i.p.; Didymin/HP-β-CD 20 mg/kg/day i.g.; 14 days
Experimental: To further investigate the chemosensitivity of […] inclusion complex, female BALB/c nude mice (5-6 weeks old, Shanghai Laboratory Animal Center, China) were injected subcutaneously with MCF-7/ADR cells (10^7 cells/per mouse). […] (1) Control group, 0.9% saline (0.2 mL/kg/day, i.p.); (2) DOX group, DOX (5 mg/kg/3 days, i.p.); (3) DOX + […] group, DOX (5 mg/kg/3 days, […] was given by oral gavage (i.g.) while DOX was intraperitoneal injected (i.p.). DOX injection was performed 30 min after the […] by gavage. The mouse weight and tumor volume were measured every day. The tumor volume was obtained using the formula (Yao et al., [2019]). On day 14, the mice were sacrificed, and tumor tissues were collected, fixed and sliced for pathological examination (H&E staining, Ki67 immunohistochemical staining, and TUNEL assay).

[2] = Solubility study of didymin in different media (HPLC); type: physicochemical; settings: for solubility at 72 h: thermodynamic from solid, room temperature, 72 h stirring
Experimental: Add excess didymin into a different medium (water, ethanol, methanol, 1% β-CD, and 1% HP-β-CD), and keep stirring at room temperature for 72 h. After that, 1.5 mL of the suspension was taken for centrifugation to take the supernatant. After filtering with a […] filter membrane (Shanghai Boguang Biotechnology Co., Ltd, Shanghai, China), the concentration of each solution was measured by the HPLC method.
An analytical HPLC method was developed to determine the concentration of didymin. The chromatographic conditions are: Agilent HC-C18 column (4.6 mm × 250 mm, 5 μm) (Agilent Technologies, Inc., Santa Clara, CA, USA), the mobile phase was phosphate buffer (pH 6.8)–methanol (45:55), the detection wavelength was 283 nm, the column temperature was 25 °C, and the flow rate was 1.0 mL/min, and. The samples were filtered (0.45 μm) and deaerated before use.

[3] = Pharmacokinetic study after oral administration; type: in vivo; settings: male, rat, plasma, SD rats, 25 mg/kg
Experimental: All animal experiments were carried out under the Guide for Care and Use of Laboratory Animals and approved by the approval of the Ethics Committee of Wenzhou Medical University. Male SD rats ([…], Shanghai Laboratory Animal Center, China) weighing 220–250 g (n = 6 per group) were studied in the pharmacokinetic study. Free didymin and two types of didymin inclusion complexes (25 mg/kg, respectively) were orally administered with sterilized water. Then blood samples were collected from the orbit venous plexus at predetermined time intervals. The blood samples were then centrifuged at 15000 r/min for 10 min, then dried at 40 °C under nitrogen flow to solid-phase extraction. Methanol was added to dissolve the residue. Then the concentration of didymin in plasma was determined by HPLC methods and calculated the pharmacokinetic parameters.

[4] = MTT cytotoxicity assay on healthy cells; type: cell-based; settings: all tested concentrations 10 μM∼200 μM, read-out: cell viability
Experimental: as §1

Acute toxicity study = type: in vivo, BALB/c mice; settings: mice, single oral dose 250 mg/kg
Experimental: An acute toxicity test was conducted as previously reported (Kandhare et al., [2016]). In brief, the BALB/c mice weighing about 18–22 g were administrated of didymin at a single dose of 250 mg/kg using oral gastric gavages. […] On 15th day animals were sacrificed, and the major organs were collected, fixed, and sliced for H&E staining.

MCF-7 cells = experiment: MTT cytotoxicity / chemosensitivity assay, sensitive tumor cells; type: cell-based; settings: MCF-7, without DOX, tested concentrations
Experimental: as §1, §2

MCF-7/ADR cells [5] = experiment: Intracellular uptake study of DOX; type: cell-based; settings: DOX 10 μM, 4 h, fluorescence microscopy and quantitative analysis
Experimental: The effect of didymin on the intracellular uptake of the P-gp substrate was conducted as previously reported (Dai et al., [2016]; Yao et al., [2019]). Briefly, MCF-7/ADR cells were seeded in a 6-well plate at 4 × 10^5 cell/mL overnight before the experiment. Then the cancer cells were incubated with DOX (10 μM) at a concentration with or without didymin formulations for 4 h. Then, the treated cells were washed with ice-cold PBS three times and recorded under fluorescence microscopy (Nikon, Tokyo, Japan). In an independent study, after treatment, the cells were washed with ice-cold PBS and then lysed. Then acetonitrile was added into the cell lysate to extract the didymin via protein precipitation (PP)/extraction method. The didymin concentration in the supernatant was determined by the previously validated HPLC method.

P-gp transporter = target: T1, P-gp transporter (Homo sapiens, UniProt P08183); experiment: Calcein-AM extrusion assay; type: cell-based; settings: MCF-7/ADR, 30 min pre-incubation then calcein-AM 30 min
T1 construct: endogenous in cells; host or cells: MCF-7/ADR cells
Experimental: The effect of didymin and its inclusion complex on the efflux function of P-gp transporter was studied using calcein-AM extrusion assay as reported (Dai et al., [2016]). Briefly, MCF-7/ADR cells were seeded in a 6-well plate at 2 × 10^5 cell/mL overnight before the experiment. The cancer cell was incubated with verapamil or didymin formulations for 30 min and then treated with calcein-AM for another 30 min. Then, the treated cells were washed with ice-cold PBS three times and recorded under fluorescence microscopy. In an independent study, after treatment, the cells were washed, trypsinized, and collected by centrifuge. The collected cells were then washed with PBS and analyzed by flow cytometry (BD Bioscience, Franklin Lakes, NJ, USA). The data was collected with 1 × 10^5 events counter per samples

T1 sequence (P08183 whole entry): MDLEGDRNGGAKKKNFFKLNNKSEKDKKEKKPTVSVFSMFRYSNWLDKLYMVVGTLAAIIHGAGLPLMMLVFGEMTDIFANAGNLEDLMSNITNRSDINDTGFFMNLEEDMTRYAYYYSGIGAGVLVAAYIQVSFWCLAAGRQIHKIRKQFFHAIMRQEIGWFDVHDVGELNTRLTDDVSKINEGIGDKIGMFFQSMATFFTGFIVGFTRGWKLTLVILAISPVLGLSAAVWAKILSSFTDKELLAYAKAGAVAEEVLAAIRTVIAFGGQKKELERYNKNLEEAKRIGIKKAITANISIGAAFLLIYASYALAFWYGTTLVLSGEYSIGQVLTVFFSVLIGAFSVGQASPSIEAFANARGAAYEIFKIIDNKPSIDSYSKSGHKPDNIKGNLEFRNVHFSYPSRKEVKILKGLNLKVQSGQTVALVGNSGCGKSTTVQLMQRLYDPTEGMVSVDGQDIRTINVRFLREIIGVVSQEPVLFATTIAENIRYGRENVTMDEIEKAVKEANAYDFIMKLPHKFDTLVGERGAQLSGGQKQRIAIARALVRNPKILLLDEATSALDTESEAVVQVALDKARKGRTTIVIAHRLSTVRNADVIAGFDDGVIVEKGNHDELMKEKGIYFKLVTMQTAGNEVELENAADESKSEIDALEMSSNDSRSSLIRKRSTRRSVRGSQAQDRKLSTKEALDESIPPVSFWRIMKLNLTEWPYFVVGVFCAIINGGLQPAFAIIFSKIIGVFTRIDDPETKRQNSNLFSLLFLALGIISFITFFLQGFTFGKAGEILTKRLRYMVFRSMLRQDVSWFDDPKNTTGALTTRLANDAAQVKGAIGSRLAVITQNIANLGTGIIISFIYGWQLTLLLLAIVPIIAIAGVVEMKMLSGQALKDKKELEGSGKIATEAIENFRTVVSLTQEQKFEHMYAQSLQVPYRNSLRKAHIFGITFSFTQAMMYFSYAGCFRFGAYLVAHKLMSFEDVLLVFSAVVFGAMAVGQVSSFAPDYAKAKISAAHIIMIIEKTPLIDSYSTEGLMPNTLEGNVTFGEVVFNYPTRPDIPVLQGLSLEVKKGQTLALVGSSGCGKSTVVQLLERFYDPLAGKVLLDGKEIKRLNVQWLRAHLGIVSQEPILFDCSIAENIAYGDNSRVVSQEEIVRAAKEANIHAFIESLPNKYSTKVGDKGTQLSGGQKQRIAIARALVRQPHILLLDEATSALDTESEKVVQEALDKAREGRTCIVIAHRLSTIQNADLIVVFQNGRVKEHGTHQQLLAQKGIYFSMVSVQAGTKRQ

COc1cccc2c1C(=O)c1c(O)c3c(c(O)c1C2=O)C[C@@](O)(C(=O)CO)C[C@@H]3O[C@H]1C[C@H](N)[C@H](O)[C@H](C)O1 [DOX, doxorubicin, reference compound]
IC50 (MCF-7/ADR cells [1]; Homo sapiens, NCI/ADR-RES, free DOX): > 20 µM
tumor growth inhibition (MCF-7/ADR tumor): 34%

COc1ccc(C2CC(=O)c3c(O)cc(OC4OC(COC5OC(C)C(O)C(O)C5O)C(O)C(O)C4O)cc3O2)cc1 (stereo not drawn) [didymin, isosakuranetin-7-beta-rutinoside]
solubility at 72 h ([2]; aqueous with cosolvent or surfactant or cyclodextrin, 1% HP-β-CD solution, read-out: solubility in 1% HP-β-CD solution): 735 ± 370 µg/mL (≈ 1240 µM)
solubility at 72 h ([2]; organic solvent or mixture, ethanol, read-out: solubility in ethanol): 1240 ± 720 µg/mL (≈ 2090 µM)
solubility at 72 h ([2]; organic solvent or mixture, methanol, read-out: solubility in methanol): 11200 ± 1190 µg/mL (≈ 18900 µM)
increase of aqueous solubility compared to free didymin ([2]; presence of HP-β-CD): 6.9 times
increase of aqueous solubility compared to free didymin ([2]; presence of β-CD): 4.7 times
solubility at 72 h ([2]; water, read-out: solubility in water): 107 ± 120 µg/mL (≈ 180 µM)
Cmax [3]: 2770 ng/mL
Tmax [3]: 11.4 ± 3 min
half-life [3]: 105 ± 9.6 min
AUC(0-t) ([3]; read-out: AUC0–12 h): 5910 ng·h/mL
viability at 48 h ([4]; human, HUVEC cells): > 90%
viability at 48 h ([4]; rat, H9C2 cells, H9C2, 48 h): > 90%
viability at 48 h ([4]; rat, PC12 cells, PC12, 48 h): > 90%
abnormal behaviors and weight change in the observation period (Acute toxicity study; 14 days): did not show any abnormal behaviors and weights change
H&E staining of major organs (Acute toxicity study; after 14 days): no signs of any toxicity
cytotoxicity alone (MCF-7 cells): did not exert toxicity on cancer cells
cytotoxicity alone (MCF-7/ADR cells [1]; without DOX, tested concentrations): did not exert toxicity on cancer cells
DOX intracellular accumulation (MCF-7/ADR cells [5]): increase the DOX intracellular accumulation
P-gp efflux function (intracellular calcein fluorescence) (P-gp transporter): significantly inhibit the function of P-gp transporter
